This passage reports IC50 and inhibition results from US10815210B2, “Benzocyclobutane derivatives useful as dual SGLT1 / SGLT2 modulators” (Janssen Pharmaceutica NV, priority 2016, dated 2020).

One test addresses T1, human SGLT1 (Homo sapiens, UniProt P13866).
T1 construct: expressed in transfected cells; host or cells: CHO-K1
T1 sequence (P13866 1-664): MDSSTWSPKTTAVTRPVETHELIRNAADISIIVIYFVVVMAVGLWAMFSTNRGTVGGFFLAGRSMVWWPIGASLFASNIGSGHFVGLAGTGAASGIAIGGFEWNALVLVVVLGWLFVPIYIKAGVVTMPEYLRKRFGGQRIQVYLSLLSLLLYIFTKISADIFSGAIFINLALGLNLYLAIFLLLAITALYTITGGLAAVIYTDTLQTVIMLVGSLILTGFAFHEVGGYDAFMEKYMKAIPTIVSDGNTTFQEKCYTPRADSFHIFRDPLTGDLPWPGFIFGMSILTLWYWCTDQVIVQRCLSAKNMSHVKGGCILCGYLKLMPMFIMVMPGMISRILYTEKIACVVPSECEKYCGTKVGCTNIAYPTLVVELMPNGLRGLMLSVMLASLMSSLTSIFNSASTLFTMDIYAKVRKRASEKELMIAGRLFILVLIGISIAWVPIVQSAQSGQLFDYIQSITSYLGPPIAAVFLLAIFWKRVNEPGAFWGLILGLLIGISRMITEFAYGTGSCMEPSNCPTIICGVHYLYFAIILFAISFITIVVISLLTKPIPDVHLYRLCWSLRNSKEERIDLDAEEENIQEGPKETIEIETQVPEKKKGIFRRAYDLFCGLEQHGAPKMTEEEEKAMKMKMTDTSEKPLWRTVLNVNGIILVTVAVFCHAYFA
Kind of test: SGLT1 assay: Na-dependent 14C-AMG uptake in CHO-K1 cells stably expressing human SGLT1. Type of test: cell-based. Particulars: for IC50: 500 μM AMG, 2 hours at 37° C. The method, boiled down: (§1)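 CHO-K1 cells stably expressing human SGLT1 or SGLT2, pretreated 24 h with 10 mM Na-butyrate, were exposed 10 min to compound (0.001-10 μM) in Na-containing HEPES/Tris buffer pH 7.4. Uptake of ^14C-AMG (500 μM final) ran 2 h at 37° C, then Na-dependent uptake was counted by scintillation.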

The next test addresses T2, human SGLT2 (Homo sapiens, UniProt P31639).
T2 construct: expressed in transfected cells; host or cells: CHO-K1
T2 sequence (P31639 1-672): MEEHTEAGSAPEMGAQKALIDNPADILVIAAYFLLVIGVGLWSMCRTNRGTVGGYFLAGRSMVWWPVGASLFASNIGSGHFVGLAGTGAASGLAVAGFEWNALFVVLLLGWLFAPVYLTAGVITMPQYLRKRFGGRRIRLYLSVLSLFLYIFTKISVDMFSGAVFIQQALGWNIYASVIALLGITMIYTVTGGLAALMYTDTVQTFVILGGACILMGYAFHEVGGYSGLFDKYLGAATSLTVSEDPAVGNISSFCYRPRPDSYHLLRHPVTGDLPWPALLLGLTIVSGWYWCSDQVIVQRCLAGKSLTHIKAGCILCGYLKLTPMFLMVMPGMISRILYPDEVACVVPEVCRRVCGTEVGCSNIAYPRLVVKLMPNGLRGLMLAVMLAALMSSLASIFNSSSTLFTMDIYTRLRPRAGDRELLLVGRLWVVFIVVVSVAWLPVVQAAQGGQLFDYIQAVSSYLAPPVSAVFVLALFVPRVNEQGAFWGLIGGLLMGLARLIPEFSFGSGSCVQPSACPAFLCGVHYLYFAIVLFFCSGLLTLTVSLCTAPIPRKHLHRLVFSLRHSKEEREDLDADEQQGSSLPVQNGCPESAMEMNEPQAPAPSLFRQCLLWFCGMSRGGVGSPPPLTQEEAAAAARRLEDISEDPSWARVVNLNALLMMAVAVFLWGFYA
Kind of test: SGLT2 assay: Na-dependent 14C-AMG uptake in CHO-K1 cells stably expressing human SGLT2. Type of test: cell-based. Particulars: for IC50: 500 μM AMG, 2 hours at 37° C. The method, boiled down:
as §1

In the case of `Cc1ccc([C@@H]2O[C@H](CO)[C@@H](O)[C@H](O)[C@H]2O)cc1C(F)(F)c1ccc2c(c1)CC2` [Compound 141], the IC50 (in general, the concentration at which inhibition is half-maximal) against human SGLT1 was 33 nM; against human SGLT2, 2 nM.
The corresponding values for `[2H]C([2H])(c1ccc2c(c1)CC2)c1cc([C@@H]2O[C@H](CO)[C@@H](O)[C@H](O)[C@H]2O)c(O)cc1C` (single isomer, unassigned) [Compound 52] are 4 nM and 1 nM.
On to `OC[C@H]1O[C@@H](c2cc(Cc3ccc4c(c3)CC4)c(Cl)cc2F)[C@H](O)[C@@H](O)[C@@H]1O` [Compound 30, (2S,3R,4R,5S,6R)-2-(4-chloro-5-((1,2-dihydrocyclobutabenzen-4-yl)methyl)-2-fluorophenyl)-6-(hydroxymethyl)-tetrahydro-2H-pyran-3,4,5-triol], for which the IC50 against human SGLT1 came out at 206 nM; on human SGLT2, 3 nM.
For `Cc1cc(O)c([C@@H]2O[C@H](CO)C(F)(F)[C@H](O)[C@H]2O)cc1Cc1ccc2c(c1)CC2` [Compound 92, (2S,3R,4R,6R)-2-(5-(bicyclo[4.2.0]octa-1(6),2,4-trien-3-ylmethyl)-2-hydroxy-4-methylphenyl)-5,5-difluoro-6-(hydroxymethyl)tetrahydro-2H-pyran-3,4-diol], in that order: 14 nM and 2 nM.
Take `OC[C@H]1O[C@@H](c2cc(Cc3ccc4c(c3)CC4)c(Cl)cc2O)[C@H](O)[C@@H](O)[C@@H]1F` [Compound 129]: the IC50 against human SGLT1 was found to be 4 nM; against human SGLT2, 1 nM.
For `CCOc1cc(C)c(Cc2ccc3c(c2)CC3)cc1[C@@H]1O[C@H](CO)[C@@H](F)[C@H](O)[C@H]1O` [Compound 131], in that order: 49 nM and 1 nM.
On to `CCOc1cc(Cl)c(Cc2ccc3c(c2)CC3)cc1[C@@H]1O[C@H](CO)C(F)(F)[C@H](O)[C@H]1O` [Compound 104], for which the IC50 at human SGLT1 came out at 14 nM; at human SGLT2 it was 1 nM.
Turning to `CCc1ccc([C@@H]2O[C@H](CO)[C@@H](O)[C@H](O)[C@H]2O)cc1Cc1ccc2c(c1)CC2` [Compound 4, (2S,3R,4R,5S,6R)-2-(3-((1,2-dihydrocyclobutabenzen-4-yl)methyl)-4-ethylphenyl)-6-(hydroxymethyl)-tetrahydro-2H-pyran-3,4,5-triol], the half-maximal inhibitory concentration (IC50) at human SGLT1 was 18 nM; at human SGLT2, 3 nM.
Regarding `Cc1ccc([C@@H]2O[C@H](CO)C(F)(F)[C@H](O)[C@H]2O)cc1Cc1ccc2c(c1)CC2` [Compound 91, (2S,3R,4R,6R)-2-(3-(bicyclo[4.2.0]octa-1(6),2,4-trien-3-ylmethyl)-4-methylphenyl)-5,5-difluoro-6-(hydroxymethyl)tetrahydro-2H-pyran-3,4-diol], the values for the IC50 on human SGLT1 and against human SGLT2 were 49 nM and 1 nM, respectively.
The corresponding values for `[2H]C1([2H])Cc2cc(Cc3cc([C@@H]4O[C@H](CO)[C@@H](O)[C@H](O)[C@H]4O)ccc3Cl)ccc21` (single isomer, unassigned) [Compound 81] are 62 nM and 1 nM.
Regarding `Cc1cc(OC(F)F)c([C@@H]2O[C@H](CO)[C@@H](O)[C@H](O)[C@H]2O)cc1Cc1ccc2c(c1)CC2` [Compound 36, 2S,3R,4R,5S,6R)-2-(5-([bicyclo[4.2.0]octa-1(6),2,4-trien-3-ylmethyl]-2-(difluoromethoxy)-4-methylphenyl)-6-(hydroxymethyl)oxane-3,4,5-triol], at human SGLT1, the inhibition – broadly, the percentage by which the read-out fell short of the control – at 0.3 µM was found to be 26%. On human SGLT2, this compound showed an inhibition at 0.03 µM of 84%.
Take `Cc1cc(OCF)c([C@@H]2O[C@H](CO)[C@@H](O)[C@H](O)[C@H]2O)cc1Cc1ccc2c(c1)CC2` [Compound 39, (2S,3R,4R,5S,6R)-2-(5-[bicyclo[4.2.0]octa-1(6),2,4-trien-3-ylmethyl]-2-(fluoromethoxy)-4-methylphenyl)-6-(hydroxymethyl)oxane-3,4,8-triol]: the IC50 against human SGLT1 amounted to 27 nM; on human SGLT2 it was 13 nM.
For `OC[C@H]1O[C@@H](c2cc(Cc3ccc4c(c3)CC4)c(Cl)cc2OCF)[C@H](O)[C@@H](O)[C@@H]1O` [Compound 40, (2S,3R,4R,5S,6R)-2-(4-chloro-5-((1,2-dihydrocyclobutabenzen-4-yl)methyl)-2-(fluoromethoxy)phenyl)-6-(hydroxymethyl)-tetrahydro-2H-pyran-3,4,5-triol], in that order: 149 nM and 1 nM.
The corresponding values for `CCc1cc(OCF)c([C@@H]2O[C@H](CO)[C@@H](O)[C@H](O)[C@H]2O)cc1Cc1ccc2c(c1)CC2` [Compound 42, (2S,3R,4R,5S,6R)-2-(5-((1,2-dihydrocyclobutabenzen-4-yl)methyl)-4-ethyl-2-(fluoromethoxy)phenyl)-6-(hydroxymethyl)-tetrahydro-2H-pyran-3,4,5-triol] are 34 nM and 2 nM.
`CCc1cc(OC(F)F)c([C@@H]2O[C@H](CO)[C@@H](O)[C@H](O)[C@H]2O)cc1Cc1ccc2c(c1)CC2` [Compound 122] displayed an inhibition at 0.3 µM against human SGLT1 of 53%. In addition, on human SGLT2, at 0.03 µM the inhibition was 55.5%.
As to `[2H]C1([2H])Cc2ccc(Cc3cc([C@@H]4O[C@H](CO)[C@@H](O)[C@H](O)[C@H]4O)c(F)cc3Cl)cc21` [Compound 71, (2S,3R,4R,5S,6R)-2-{5-[(8,8-dideuterium)bicyclo[4.2.0]octa-1(6),2,4-trien-3-ylmethyl]-4-chloro-2-fluorophenyl}-6-(hydroxymethyl)oxane-3,4,5-triol], the values for the IC50 against human SGLT1 and at human SGLT2 were 71 nM and 3 nM, respectively.
